Columns and labels:
[1] = target: T1, uncoupling protein 1 (UCP1) (Mus musculus, UniProt P12242); test: whole-IMM patch clamp, dose-dependent inhibition of IH induced by […] DNP; format: biochemical
T1 sequence (P12242 1-307): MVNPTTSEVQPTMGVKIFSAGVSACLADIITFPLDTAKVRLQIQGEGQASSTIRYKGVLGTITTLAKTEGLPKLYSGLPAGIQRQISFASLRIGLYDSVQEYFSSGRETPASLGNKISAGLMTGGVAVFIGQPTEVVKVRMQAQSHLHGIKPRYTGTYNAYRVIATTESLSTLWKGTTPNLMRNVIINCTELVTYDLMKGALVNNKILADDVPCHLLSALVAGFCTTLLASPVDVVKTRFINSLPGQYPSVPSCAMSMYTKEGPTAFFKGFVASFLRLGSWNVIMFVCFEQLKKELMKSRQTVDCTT

[2] = target: T1, uncoupling protein 1 (UCP1); test: whole-IMM patch clamp, WT vs UCP1-/-; format: cell-based
ADP/ATP carrier AAC1 = target: T2, ADP/ATP carrier AAC1 (Mus musculus, UniProt P48962); test: whole-IMM patch clamp; format: cell-based
T2 sequence (P48962 2-298): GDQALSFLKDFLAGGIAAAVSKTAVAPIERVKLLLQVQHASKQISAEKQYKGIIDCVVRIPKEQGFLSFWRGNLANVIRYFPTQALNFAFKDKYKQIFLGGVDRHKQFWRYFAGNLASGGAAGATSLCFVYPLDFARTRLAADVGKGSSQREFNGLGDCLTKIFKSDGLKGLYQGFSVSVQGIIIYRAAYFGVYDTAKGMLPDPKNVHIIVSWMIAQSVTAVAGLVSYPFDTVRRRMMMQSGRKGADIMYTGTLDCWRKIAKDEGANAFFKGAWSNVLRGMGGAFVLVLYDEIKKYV

`Nc1ncnc2c1ncn2[C@@H]1O[C@H](COP(=O)(O)OP(=O)(O)OP(=O)(O)O)[C@@H](O)[C@H]1O` [ATP] was tested, and the IC50 [1] was about 14 µM.

In the case of `O=[N+]([O-])c1ccc(O)c([N+](=O)[O-])c1` [DNP, 2,4-dinitrophenol], the “whole-IMM patch clamp, WT vs UCP1-/-; GDP block; competition with ATP” value [2] is reported as “Thus, UCP1 is crucial for DNP-induced IH in brown fat mitochondria”.

`N#CC(C#N)=NNc1ccc(OC(F)(F)F)cc1` [FCCP] was tested, and the “whole-IMM patch clamp (25-250 nM), WT vs AAC1-/-; CATR block” value (ADP/ATP carrier AAC1) was “DNP and FCCP activate IH through AAC”.

Source: PMC9646675 (Nature, 2022)
